# Measured values reported in patent US20040082757A1, “Echinocandin derivatives, pharmaceutical compositions containing same and use thereof as drugs” (priority 2001, published 2004).
# Numbered stars: 1 amine (or outer) side, 2 acyl side, 3 side chain; on linkers, the order of the positions; unused ones are H or OH. Bridge positions count the residues as written; N and C are the ends. Square brackets hold non-standard residues; d marks the D form. Peptide text beside a SMILES is read from it. * marks the point of attachment. ξ: configuration not given here. ξhTyr(βξ-OH,3-OSO3H) = NC(C(=O)O)C(O)Cc1ccc(O)c(OS(=O)(=O)O)c1; ξOrn(4,5-diOH) = O=C(C(CC(O)C(O)N[*:3])N[*:1])[*:2]; X3 = CCCCCOc1ccc(-c2cc(-c3ccc(C(=O)*)cc3)no2)cc1; ξOrn(4ξ-OH) = O=C(C(CC(O)CN[*:3])N[*:1])[*:2]; ξPro(3ξ-OH,4ξ-Me) = CC1CNC(C(=O)O)C1O; X2 = NC(=O)CC(O)C(N[*:1])C(=O)[*:2]; X1 = O=C(C1C(O)C(O)CN1[*:1])[*:2]; ξT = CC(O)C(N)C(=O)O
# System: Candida albicans FP 633
# Experiment: Antimicrobial activity test: antifungal susceptibility by microdilution method (NCCLS M27-A), MIC
# Type: cell-based
# Conditions: FP633, RPMI 1640, pH 7.0, 35° C., lowest concentration with no visible growth
# Method: The antifungal susceptibility assays were performed by the microdilution method according to M27-A guidelines recommended by the National Committee for Clinical Laboratory Standards (NCCLS) to determine the MICs of the compounds. RPMI 1640 medium with L-glutamine, without sodium bicarbonate and buffered with 165 mM morpholinepropanesulfonic acid buffer (pH 7.0) was used as a test medium. Inoculum suspension of 10^6 CFU/ml were prepared by a hemocytometric procedure and diluted to obtain an inoculum size of approximately 0.5×10^3 to 2.5×10^3 CFU/ml. Microplates were incubated at 35° C., and readings were taken when good growth in the growth control. The MICs were defined as the lowest concentrations at which no visible growth was observed.
row,SMILES,MIC [µg/mL]
1,"CCCCCOc1ccc(-c2cc(-c3ccc(C(=O)NC4CC(O)CNC(=O)C5C(O)C(C)CN5C(=O)C(C(O)CC(N)=O)NC(=O)C(C(O)Cc5ccc(O)c(OS(=O)(=O)[O-])c5)NC(=O)C5CCCN5C(=O)C(C(C)O)NC4=O)cc3)no2)cc1.[Na+] (stereo not drawn) [Object Compound (8)] (X3-[ξOrn(4ξ-OH)]TP[ξhTyr(βξ-OH,3-OSO3H)][X2][ξPro(3ξ-OH,4ξ-Me)]; lactam 1-C; configuration not given here)",< 0.1
2,CCCCCOc1ccc(-c2cc(-c3ccc(C(=O)NC4CC(O)C(O)NC(=O)C5C(O)C(C)CN5C(=O)C(C(O)CC(N)=O)NC(=O)C(C(O)Cc5ccc(O)c(OS(=O)(=O)[O-])c5)NC(=O)C5C(O)C(O)CN5C(=O)C(C(C)O)NC4=O)cc3)no2)cc1.[Na+] (stereo not drawn) [Object Compound (9)],< 0.02
3,"CCCCCOc1ccc(-c2cc(-c3ccc(C(=O)NC4CC(O)CNC(=O)C5C(O)C(C)CN5C(=O)C(C(O)CC(N)=O)NC(=O)C(C(O)Cc5ccc(O)c(OS(=O)(=O)[O-])c5)NC(=O)C5CCCN5C(=O)C(CO)NC4=O)cc3)no2)cc1.[Na+] (stereo not drawn) [Object Compound (10)] (X3-[ξOrn(4ξ-OH)]SP[ξhTyr(βξ-OH,3-OSO3H)][X2][ξPro(3ξ-OH,4ξ-Me)]; lactam 1-C; configuration not given here)",< 0.1

# System: not given
# Experiment: not given
# Conditions: not given
row,SMILES,melting point
1,"CC(O)C1NC(=O)C(N)CC(O)CNC(=O)C2C(O)C(C)CN2C(=O)C(C(O)CC(N)=O)NC(=O)C(C(O)Cc2ccc(O)c(OS(=O)(=O)O)c2)NC(=O)C2CCCN2C1=O (stereo not drawn) [Object Compound (1)] (H-[ξOrn(4ξ-OH)]TP[ξhTyr(βξ-OH,3-OSO3H)][X2][ξPro(3ξ-OH,4ξ-Me)]; lactam 1-C; configuration not given here)",250 to 260 °C (dec.)
2,"CC(O)C1NC(=O)C(N)CC(O)C(O)NC(=O)C2C(O)C(C)CN2C(=O)C(C(O)CC(N)=O)NC(=O)C(C(O)Cc2ccc(O)c(OS(=O)(=O)O)c2)NC(=O)C2C(O)C(O)CN2C1=O (stereo not drawn) [Object Compound (2)] (H-[ξOrn(4,5-diOH)][ξT][X1][ξhTyr(βξ-OH,3-OSO3H)][X2][ξPro(3ξ-OH,4ξ-Me)]; lactam 1-C)",215 to 220 °C (dec.)
3,"CC1CN2C(=O)C(C(O)CC(N)=O)NC(=O)C(C(O)Cc3ccc(O)c(OS(=O)(=O)O)c3)NC(=O)C3CCCN3C(=O)C(CO)NC(=O)C(N)CC(O)CNC(=O)C2C1O (stereo not drawn) [Object Compound (3)] (H-[ξOrn(4ξ-OH)]SP[ξhTyr(βξ-OH,3-OSO3H)][X2][ξPro(3ξ-OH,4ξ-Me)]; lactam 1-C; configuration not given here)",255 to 260 °C (dec.)
